Experiments:
[1] = tested on: subcutaneous adipose layer of skin explants; experiment: Lipogenesis: triglyceride synthesis from C-14 acetate in subcutaneous fat of skin explants (HPTLC); type: cell-based, human; conditions: 20 μM in medium, untreated control 100%
Description: (§1) To examine the metabolic activity of the subcutaneous adipose layer, explant cultures were established as described in Example 1, using optimized media with 5% serum. After overnight incubation, skin explants remained untreated or were treated with 20 μM of rosiglitazone or with 50 μM of conjugated linoleic acid in the media, for the evaluation of their effect on lipogenesis and lipolysis of subcutaneous adipose layer. Explants were incubated at 37° C. in a 5% CO2 atmosphere.
For assessing lipogenesis, skin explants were cultured in medium containing 20 μM of rosiglitazone and C-14 labeled acetate for 24 hours. Subcutaneous fat was then harvested, and the levels of triglyceride were determined by HPTLC as described in (Pappas et al., JID 118 (1) 164-171, 2002).

human skin explants [2] = experiment: Ki67 immunohistochemistry (cell proliferation marker) in skin explants; type: cell-based; conditions: 20 ng/ml in Medium 1, 37° C., grade 1-5, 5 = normal level prior to culture
Description: (§2) Skin explant cultures were established as described in Example 1, using Medium 1. Explants were incubated at 37° C. in a 5% CO2 atmosphere. Skin explants either remained untreated or were treated, in Medium 1, with TGF-β, an agent known to increase elastin production. Media were refreshed daily. After predetermined time periods, the skin explants were harvested, and processed for histological, immunohistochemical, and gene expression evaluation as follows. • 1. LUNA staining was used to document elastin fibers histologically, as described in Kligman, Am. J. of Dermatopathology, 3(2): 199-201, 1981. The grading of elastin fiber quality ranged from 1-5, when 5 represented best fiber quality. • 2. Ki67 was used as a marker for cell proliferation, using immunohistochemistry techniques with a rabbit monoclonal antibody for Ki67, purchased from Thermo Scientific (Pittsburgh, Pa.). Immunohistochemistry staining was performed according to manufacturer's instructions. The grading of Ki67 ranged from 1-5, when 5 represented normal Ki67 level in the skin sample prior to culture. • 3. Levels of elastin gene expression (mRNA levels) were evaluated by QPCR. Total RNA was extracted from skin explants using Trizol (Invitrogen, Carlsbad Calif.) according to manufacturer's instructions. […]

elastin gene expression = experiment: Elastin gene expression (mRNA) by QPCR in skin explants; type: cell-based, human; conditions: 20 ng/ml
Description: as §2

human skin explants [3] = experiment: LUNA staining of elastin fibers in skin explants; type: cell-based; conditions: 20 ng/ml in Medium 1, 37° C., grade 1-5, 5 = best fiber quality
Description: as §2

[4] = tested on: subcutaneous adipose layer of skin explants; experiment: Lipolysis: glycerol released into culture media of skin explants; type: cell-based, human; conditions: 50 μM in medium, untreated control 100%
Description: as §1
For evaluating lipolysis, skin explants were cultured in medium containing 50 μM of conjugated linoleic acid, and culture media were collected at indicated time points. The levels of glycerol released into the media were determined using the free glycerol reagent and kit (Sigma), which was used according to manufacture instruction.

Compound: CN(CCOc1ccc(CC2SC(=O)NC2=O)cc1)c1ccccn1 (centres unmarked) [Rosiglitazone, rosiglitazone]
- Triglyceride synthesis at 24 hr (lipogenesis) [1]: 240-270%

Compound: TGF-β
- Ki67 Proliferation marker (grade) (human skin explants [2]; Day 5): 4
- Ki67 Proliferation marker (grade) (human skin explants [2]; Day 7): 4
- Elastin mRNA (QPCR) (elastin gene expression; Day 5, untreated control normalized to 100%): 369%
- Elastin mRNA (QPCR) (elastin gene expression; Day 7, untreated control Day 5 = 100% (Day 7 control 243%)): 423%
- LUNA staining Elastin fibers (grade) (human skin explants [3]; Day 5): 3
- LUNA staining Elastin fibers (grade) (human skin explants [3]; Day 7): 4

Compound: conjugated linoleic acid
- Glyceral release at day 3 (lipolysis) [4]: 140%

Reference: patent publication US20110045477A1, “HUMAN SKIN EXPLANT CULTURE SYSTEM AND USE THEREFOR” (priority 2009, published 2011)
